Reference: patent publication US10047083B2, “Dihydropyrimidinoisoquinolinones and pharmaceutical compositions thereof for the treatment of inflammatory disorders” (GALAPAGOS NV, priority 2011, dated 2018)

Columns and labels:
GPR84 = target: T1, GPR84 (Homo sapiens, UniProt Q9NQS5); assay: GTPγS binding assay (GPR84); format: biochemical; conditions: membranes from stable cell line over expressing GPR84; 3,3′ di indolylmethane at EC80
T1 construct: expressed in transfected cells; membranes used
Procedure: 1.1. Cell Based Assay: GTp-γS Binding Assay.
The following assay can be used for determination of GPR84 activation.
The assay is performed in a 96 well plate where the following reagents are added. […] In a last step, 30 μL of a mixture consisting of membranes-GTPγS-SpA beads is added [mixture consists of 20 μg/well membranes derived from stable cell line over expressing GPR84 (membranes are pre-incubated with 0.1 μM GDP for 15 min at 4° C.), 0.1 nM [^35S]GTPγS (Perkin Elmer, NEG030) and 0.5 mg/well PVT-WGA SpA beads (Perkin Elmer, RPNQ0001)]. All components are diluted in assay buffer containing 20 mM HEPES pH 7.4; 5 mM MgCl2; 250 mM NaCl; 0.05% BSA; 75 ug/mL saponin. Reactions are incubated for 90 min at room temperature followed by centrifugation at 2000 rpm during 15 min. Plates are read on a Topcount reader (Perkin Elmer) immediately after centrifugation (readout time, 1 min/well).

human neutrophils = assay: Human neutrophil migration assay (embelin-induced); format: cell-based; conditions: neutrophils from human buffy coat, 30 min compound pre-incubation, migration towards embelin at EC80 for 1 h, ATPlite readout, read-out: human neutrophil migration inhibition (Neutrophils)
Procedure: 2. Cellular Assays 2.1. Human Neutrophil Migration Assay
The effect of agonists or antagonists for GPR84 can therefore be assayed in a neutrophil migration test. In the neutrophil migration assay, neutrophils, freshly isolated from buffy coats from human volunteers, are treated with a compound for 30 minutes. Subsequently, the neutrophils are transferred to the upper wells of a Corning HTS transwell 96 permeable support system, of which the lower wells are filled with a embelin solution at EC80 (concentration which gives 80% of the activity of GPR84). After 1 h of incubation, migration of the neutrophils towards embelin in the lower compartment can be quantified by measuring the ATP-content of the lower wells using the ATPlite luminescence ATP detection assay system (Perkin Elmer, Cat. No.: 436110).
A human buffy coat is diluted with an equal volume of ice cold DPBS. 20 mL of the diluted buffy coat is gently mixed with 4 mL of ACD buffer (140 mM citric acid, 200 mM sodium citrate and 220 mM dextrose). Then, 12 mL of the 6% dextran/0.9% NaCl solution (15 g dextran T2000 and 2.25 g NaCl dissolved in 250 mL H2O) is added to the mixture and the samples are inverted gently up to 20 times. The total volume was transferred to a new recipient and incubated at room temperature for 1 h for complete separation of the two phases to occur. The yellowish supernatant is then transferred to a clean centrifugation tube and centrifuged for 12 minutes at 1300 rpm and 4° C. After centrifugation, the supernatant is discarded and the remaining cell pellet is rapidly resuspended in 12 mL of ice-cold H2O for red blood cell lysis to occur. After 20 seconds, 4 mL of ice-cold 0.6 M KCl is added. Samples are mixed carefully and centrifuged for 6 minutes at 1300 rpm, 4° C. The supernatant is discarded and the red blood cell lysis procedure is repeated one more time. Subsequently, the cell pellet is resuspended in 4 mL of DPBS and layered over 5 mL of Lymphoprep (Nycomed Pharma, Cat. No.: 1114545) in a 15 mL centrifuge tube. After centrifugation for 12 min at 1300 rpm, 4° C., the supernatant is removed and the cell pellet, containing the neutrophils, is resuspended in 25 mL chemotaxis buffer (RPMI 1640 medium, supplemented with 10 mM HEPES; freshly made for each experiment)
A cell suspension of 8.9×10^6 cells per milliliter is prepared. 20 μL of compound solution in chemotaxis buffer is added to 180 μL cell suspension. The mixture is incubated at 37° C. for 30 minutes with intermediate resuspension of the cells after 15 minutes. Following this, 70 μL cell suspension is transferred to the upper compartment of a Corning HTS transwell 96 permeable support system with 5.0 μm pore size polycarbonate membrane (Corning, Cat. No.: 3387). The receiver well of the transwell system is then filled with 200 μL chemotaxis buffer containing compound and chemotactic agent (embelin). After incubation at 37° C. in 5% CO2 for 1 h, the upper plate of the transwell system is removed and the cell suspension in the receiver plate is transferred to a 96-well V-bottom plate. 50 μL of DPBS is added to the receiver plate to prevent remaining cells from drying out. The V-bottom plate is centrifuged for 6 minutes at 1500 rpm. The supernatant is removed and the cells are resuspended in 50 μL DPBS. The cells are then transferred back to the receiver plate of the transwell system. After this, 100 μL ATPlite solution (Perkin Elmer, Cat. No: 436110) was added to the cells. The plate is incubated for 10 minutes in the dark, while shaking. […] of cell lysate is then transferred to a white 96-well plate and luminescence is measured. The detected luminescent signal is considered as linearely related to the number of cells having migrated from the upper well to the receiver well.

T1 sequence (Q9NQS5 whole entry): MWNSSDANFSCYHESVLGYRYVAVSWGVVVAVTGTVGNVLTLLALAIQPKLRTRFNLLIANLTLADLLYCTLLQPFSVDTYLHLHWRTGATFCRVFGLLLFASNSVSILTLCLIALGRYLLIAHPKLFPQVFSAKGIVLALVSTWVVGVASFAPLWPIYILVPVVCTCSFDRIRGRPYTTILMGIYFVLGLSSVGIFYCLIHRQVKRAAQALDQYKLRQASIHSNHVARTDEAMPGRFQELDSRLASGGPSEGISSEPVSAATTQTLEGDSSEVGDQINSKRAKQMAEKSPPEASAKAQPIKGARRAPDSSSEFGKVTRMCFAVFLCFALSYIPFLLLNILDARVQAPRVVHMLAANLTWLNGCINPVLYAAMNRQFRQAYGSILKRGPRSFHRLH

| SMILES | IC50 (GPR84) [nM] | IC50 (human neutrophils) [nM] |
| --- | --- | --- |
| O=c1nc(OCC2COCCO2)cc2n1CCc1cc(CCCNc3ccccc3)ccc1-2 (stereo in doubt) [Compound 149, 2-((S)-1-[1,4]dioxan-2-ylmethoxy)-9-(3-phenylamino-propyl)-6,7-dihydro-pyrimido[6,1-a]isoquinolin-4-one] | 0.01 to 100 | 0.01 to 100 |
| N#Cc1ccccc1-c1ccc2c(c1)CCn1c-2cc(OCC2COCCO2)nc1=O (stereo not shown) [Compound 4, 2-[2-([1,4]dioxan-2-ylmethoxy)-4-oxo-6,7-dihydro-4H-pyrimido[6,1-a]isoquinolin-9-yl]-benzonitrile] |  | 101 to 500 |
| CC(C)(C)c1nc(COc2ccc3c(c2)CCn2c-3cc(OCC3COCCO3)nc2=O)no1 (stereo not shown) [Compound 17, 9-(5-tert-butyl-[1,2,4]oxadiazol-3-ylmethoxy)-2-([1,4]dioxan-2-ylmethoxy)-6,7-dihydro-pyrimido[6,1-a]isoquinolin-4-one] |  | 0.01 to 100 |
| CCCC#Cc1ccc2c(c1)CCn1c-2cc(OCC2COCCO2)nc1=O (stereo not shown) [Compound 19, 2-([1,4]dioxan-2-ylmethoxy)-9-pent-1-ynyl-6,7-dihydro-pyrimido[6,1-a]isoquinolin-4-one] |  | 0.01 to 100 |
| O=c1nc(OCC2COCCO2)cc2n1CCc1cc(CCc3ccccn3)ccc1-2 (stereo not shown) [Compound 20, 2-([1,4]dioxan-2-ylmethoxy)-9-(2-pyridin-2-yl-ethyl)-6,7-dihydro-pyrimido[6,1-a]isoquinolin-4-one] |  | 0.01 to 100 |
| O=c1nc(OCC2COCCO2)cc2n1CCc1cc(-c3ccc4[nH]ccc4c3)ccc1-2 (stereo not shown) [Compound 22, 2-([1,4]dioxan-2-ylmethoxy)-9-(1H-indol-5-yl)-6,7-dihydro-pyrimido[6,1-a]isoquinolin-4-one] |  | 0.01 to 100 |
| COc1ccccc1-c1ccc2c(c1)CCn1c-2cc(OCC2COCCO2)nc1=O (stereo not shown) [Compound 23, 2-([1,4]dioxan-2-ylmethoxy)-9-(2-methoxy-phenyl)-6,7-dihydro-pyrimido[6,1-a]isoquinolin-4-one] |  | 101 to 500 |
| O=c1nc(OCC2COCCO2)cc2n1CCc1cc(C#CC3CC3)ccc1-2 (stereo not shown) [Compound 30, 9-cyclopropylethynyl-2-([1,4]dioxan-2-ylmethoxy)-6,7-dihydro-pyrimido[6,1-a]isoquinolin-4-one] |  | 0.01 to 100 |
| Cn1ccc2cc(-c3ccc4c(c3)CCn3c-4cc(OCC4COCCO4)nc3=O)ccc21 (stereo not shown) [Compound 34, 2-([1,4]dioxan-2-ylmethoxy)-9-(1-methyl-1H-indol-5-yl)-6,7-dihydro-pyrimido[6,1-a]isoquinolin-4-one] |  | 0.01 to 100 |
| Cc1ccc(-c2ccc3c(c2)CCn2c-3cc(OCC3COCCO3)nc2=O)cn1 (stereo not shown) [Compound 35, 2-([1,4]dioxan-2-ylmethoxy)-9-(6-methyl-pyridin-3-yl)-6,7-dihydro-pyrimido[6,1-a]isoquinolin-4-one] |  | 101 to 500 |
| CN(CC#Cc1ccc2c(c1)CCn1c-2cc(OCC2COCCO2)nc1=O)Cc1ccccc1 (stereo not shown) [Compound 85, 9-[3-(benzyl-methyl-amino)-prop-1-ynyl]-2-([1,4]dioxan-2-ylmethoxy)-6,7-dihydro-pyrimido[6,1-a]isoquinolin-4-one] |  | 0.01 to 100 |
| CC(O)(C#Cc1ccc2c(c1)CCn1c-2cc(OCC2COCCO2)nc1=O)c1ccccc1 (stereo not shown) [Compound 92, 2-([1,4]dioxan-2-ylmethoxy)-9-(3-hydroxy-3-phenyl-but-1-ynyl)-6,7-dihydro-pyrimido[6,1-a]isoquinolin-4-one] |  | 0.01 to 100 |
| O=c1nc(OC[C@H]2COCCO2)cc2n1CCc1cc(C#CC3CC3)ccc1-2 [Compound 111, 9-cyclopropylethynyl-2-((R)-1-[1,4]dioxan-2-ylmethoxy)-6,7-dihydro-pyrimido[6,1-a]isoquinolin-4-one] |  | 0.01 to 100 |
| O=c1nc(OC[C@@H]2COCCO2)cc2n1CCc1cc(C#CC3CC3)ccc1-2 [Compound 122, 9-cyclopropylethynyl-2-((S)-1-[1,4]dioxan-2-ylmethoxy)-6,7-dihydro-pyrimido[6,1-a]isoquinolin-4-one] |  | 0.01 to 100 |
| CCC(O)(CC)CCc1ccc2c(c1)CCn1c-2cc(OC[C@@H]2COCCO2)nc1=O [Compound 155, 2-((S)-1-[1,4]dioxan-2-ylmethoxy)-9-(3-ethyl-3-hydroxy-pentyl)-6,7-dihydro-pyrimido[6,1-a]isoquinolin-4-one] | 0.01 to 100 |  |
| CC(C)(O)CCc1ccc2c(c1)CCn1c-2cc(OC[C@@H]2COCCO2)nc1=O [Compound 156, 2-((S)-1-[1,4]dioxan-2-ylmethoxy)-9-(3-hydroxy-3-methyl-butyl)-6,7-dihydro-pyrimido[6,1-a]isoquinolin-4-one] | 101 to 500 |  |
| CCC(O)CCc1ccc2c(c1)CCn1c-2cc(OC[C@@H]2COCCO2)nc1=O (stereo partly drawn) [Compound 157, 2-((S)-1-[1,4]dioxan-2-ylmethoxy)-9-(3-hydroxy-pentyl)-6,7-dihydro-pyrimido[6,1-a]isoquinolin-4-one] | 101 to 500 |  |
| O=c1nc(OC[C@@H]2COCCO2)cc2n1CCc1cc(OCC3COC3)ccc1-2 [Compound 163, 2-((S)-1-[1,4]dioxan-2-ylmethoxy)-9-(oxetan-3-ylmethoxy)-6,7-dihydro-pyrimido[6,1-a]isoquinolin-4-one] | 0.01 to 100 |  |
| O=c1nc(OC[C@H]2COCCO2)cc2n1CCc1cc(OCCCC3CC3)ccc1-2 [Compound 164, 9-(3-cyclopropyl-propoxy)-2-((R)-1-[1,4]dioxan-2-ylmethoxy)-6,7-dihydropyrimido[6,1-a]isoquinolin-4-one] | 0.01 to 100 |  |
| COCCCc1ccc2c(c1)CCn1c-2cc(OC[C@@H]2COCCO2)nc1=O [Compound 165, 2-((S)-1-[1,4]dioxan-2-ylmethoxy)-9-(3-methoxy-propyl)-6,7-dihydro-pyrimido[6,1-a]isoquinolin-4-one] | 0.01 to 100 |  |
| O=c1nc(OC[C@@H]2COCCO2)cc2n1CCc1cc(CCC3(O)CCCC3)ccc1-2 [Compound 166, 2-((S)-1-[1,4]dioxan-2-ylmethoxy)-9-[2-(1-hydroxy-cyclopentyl)-ethyl]-6,7-dihydro-pyrimido[6,1-a]isoquinolin-4-one] | 0.01 to 100 |  |
| O=c1nc(OC[C@H]2COCCO2)cc2n1CCc1cc(C#CC3(O)CCOCC3)ccc1-2 [Compound 167, 2-((R)-1-[1,4]Dioxan-2-ylmethoxy)-9-(4-hydroxy-tetrahydro-pyran-4-ylethynyl)-6,7-dihydro-pyrimido[6,1-a]isoquinolin-4-one] | 501 to 1000 |  |
| CCCOCCOc1ccc2c(c1)CCn1c-2cc(OC[C@H]2COCCO2)nc1=O [Compound 172, 2-((R)-1-[1,4]Dioxan-2-ylmethoxy)-9-(2-propoxy-ethoxy)-6,7-dihydro-pyrimido[6,1-a]isoquinolin-4-one] | 101 to 500 |  |
| CC(C)OCCOc1ccc2c(c1)CCn1c-2cc(OC[C@H]2COCCO2)nc1=O [Compound 173, 2-((R)-1-[1,4]Dioxan-2-ylmethoxy)-9-(2-isopropoxy-ethoxy)-6,7-dihydro-pyrimido[6,1-a]isoquinolin-4-one] | 501 to 1000 |  |
